According to patent publication US5521167A, “Cyclopentanperhydrophenanthren-17β-(hydroxy or alkoxy)-17α-(Aryl or heterocyclyl)-3β-derivatives active on the cardiovascular system, and pharmaceutical compositions containing same” (Sigma-Tau Industrie Farmceutiche Riunite S.p.A., priority 1992, dated 1996):

Legend:
Na^+,K^+ -ATPase [1] = target: T1, Na^+,K^+ -ATPase (Canis lupus familiaris, UniProt P50997); experiment: displacement of the specific ^3 H-ouabain binding from the purified Na^+,K^+ -ATPase receptor
T1 construct: Na^+,K^+ -ATPase receptor purified according to Jorghensen; from tissue
Excerpt: (§1) To test the affinity for the receptor site of the Na^+,K^+ -ATPase and the agonist or antagonist activity on the enzyme, the following tests were used: a) displacement of the specific ^3 H-ouabain binding from the Na^+,K^+ -ATPase receptor purified according to Jorghensen (Jorghensen P., BBA, 1974, 356, 36) and Erdmann ( Erdmann E. et al., Arzneim. Forsh., 1984, 34, 1314); b) inhibition of the activity of the purified Na^+,K^+ -ATPase measured as % of hydrolysis of ^32 P-ATP in presence and in absence of the tested compound (Doucet A. et al., Am. J. Physiol., 1986, 251, F851). The ability of these compounds to lower blood pressure in adult hypertensive MHS rats was tested according to the following scheme: systolic blood pressure (SBP) and heart rate (HR) were measured by an indirect tail-cuff method in three-month old hypertensive MHS rats before starting with the treatment (basal values). The rats were then subdivided in two groups of 7 animals each, one receiving the compound and the other, the control group, receiving only the vehicle. The compound was orally daily given, suspended in Methocel 0.5% (w/v), for ten days. SBP and HR were measured daily 6 and 24 hours after the treatment.

Na^+,K^+ -ATPase [2] = target: T1, Na^+,K^+ -ATPase; experiment: inhibition of the activity of the purified Na^+,K^+ -ATPase measured as % of hydrolysis of ^32 P-ATP; type: biochemical
Excerpt: as §1

hypertensive MHS rats = experiment: systolic blood pressure and heart rate in hypertensive MHS rats (indirect tail-cuff, ten-day oral treatment); type: in vivo, rat; conditions: 20 mg/Kg/os daily for ten days, in METHOCEL 0.5% w/v, 7 rats; for SYSTOLIC BLOOD PRESSURE FALL IN SPONTANEOUS HYPERTENSIVE RATS (MHS), SBP: controls 171 +/- 4.5; for HR: controls 384 +/- 11.0
Excerpt: as §1
After ten-day treatment, washout was started for at least two days, to verify whether the treatment maintained SBP low or reestablished the basal values.

[3] = ^3 H-ouabain displacement, purified Na^+,K^+ -ATPase, read-out: Binding ^3 H-Ouab. Displacement log IC50 (converted)
[4] = hydrolysis of ^32 P-ATP, purified Na^+,K^+ -ATPase, read-out: Inhibitory Activity log IC50 (converted)

| Compound | IC50 (Na^+,K^+ -ATPase [1]; [3]) | IC50 (Na^+,K^+ -ATPase [2]) | SYSTOLIC BLOOD PRESSURE FALL IN SPONTANEOUS HYPERTENSIVE RATS (MHS), SBP (hypertensive MHS rats) | HR (hypertensive MHS rats) | IC50 (Na^+,K^+ -ATPase [2]; [4]) | IC50 (Na^+,K^+ -ATPase [1]) |
| --- | --- | --- | --- | --- | --- | --- |
| C[C@]12CC[C@H](OCCN3CCCC3)C[C@H]1CC[C@@H]1[C@@H]2CC[C@@]2(C)[C@H]1CC[C@@]2(OCCN1CCCC1)c1ccoc1 [Comp. I-ad, 3β17β-Bis(2-(1-pyrrolidinyl)ethoxy)-17α-(3-furyl)-5β-androstane] | 0.398 µM | 3.16 µM |  |  |  |  |
| C[C@]12CC[C@H](OCCOCCN3CCCC3)C[C@@H]1CC[C@@H]1[C@@H]2CC[C@@]2(C)[C@H]1CC[C@@]2(OCCN)c1ccoc1 [Comp. I-am, 3β-(2-(2-(1-Pyrrolidinyl)ethoxy)ethoxy)-17β-(2-aminoethoxy)-17α-(3-furyl)-androstane] | 0.2 µM |  | 153 +/- 5.1 mm Hg | 378 +/- 8.5 beats/min. | 1.58 µM |  |
| C[C@]12CC[C@H](OCCN3CCCC3)C[C@@H]1CC[C@@H]1[C@@H]2CC[C@@]2(C)[C@H]1CC[C@@]2(OCCN1CCCC1)c1ccoc1 [Comp. I-ak, 3β, 17β-Bis(2-(1-pyrrolidinyl)ethoxy)-17α-(3-furyl)-androstane] | 0.398 µM | 5.01 µM |  |  |  |  |
| C[C@]12CC[C@H](OCCOCCN3CCCC3)C[C@@H]1CC[C@@H]1[C@@H]2CC[C@@]2(C)[C@H]1CC[C@@]2(O)c1ccoc1 [Comp. I-al, 3β-(2-(2(1-Pyrrolidinyl)ethoxyy)ethoxy)-17α-(3-furyl)-androstan-17β-ol] | 0.501 µM |  |  |  | 1.58 µM |  |
| C[C@]12CC[C@H](OCCCN)C[C@@H]1CC[C@@H]1[C@@H]2CC[C@@]2(C)[C@H]1CC[C@@]2(O)c1ccoc1 [Comp. I-ai, 3β-(3-Aminopropoxy)-17α-(3-furyl)-androstan-17β-ol] |  |  |  |  | 1.58 µM | 0.251 µM |
| C[C@]12CC[C@H](OCCOCCN3CCCC3)C=C1CC[C@@H]1[C@@H]2CC[C@@]2(C)[C@H]1CC[C@@]2(OCCN)c1ccoc1 [Comp. I-aq, 3β-(2-(2-(1-Pyrrolidinyl)ethoxy)ethoxy)-17α-(2-aminoethoxy)-17α-(3-furyl)-androst-4-ene] | 0.316 µM | 2.51 µM | 148 +/- 3.2 mm Hg | 388 +/- 12.0 beats/min. |  |  |
| C[C@]12CC[C@H](OCCOCCN3CCCC3)CC1=CC[C@@H]1[C@@H]2CC[C@@]2(C)[C@H]1CC[C@@]2(OCCN1CCCC1)c1ccoc1 [Comp. I-ay, 3β-(2-(2-(1-pyrrolidinyl)ethoxy)ethoxy)-17β-(2-(1-pyrrolidinyl)ethoxy)-17α-(3furyl)-androst-5-ene] | 0.398 µM |  | 149 +/- 4.8 mm Hg | 395 +/- 10.0 beats/min. | 1.58 µM |  |
| C[C@]12CC[C@H](SCCOCCN3CCCC3)C[C@@H]1CC[C@@H]1[C@@H]2CC[C@@]2(C)[C@H]1CC[C@@]2(OCCN1CCCC1)c1ccoc1 [Comp. I-ca, 3β-(2-(2-(1-Pyrrolidinyl)ethoxy)ethylthio)-17β-(2-(1-pyrrolidinyl)ethoxy)-17α-(3-furyl)-androstane] | 0.316 µM |  |  |  | 2 µM |  |
| C[C@]12CC[C@H](O)C[C@H]1CC[C@@H]1[C@@H]2CC[C@]2(C)[C@@H](c3ccoc3)CC[C@]12O [Ref. comp., 17β-(3-furyl)-5β-androstane-3β, 14β-diol, reference compound] |  | 2 µM | 173 +/- 4.0 mm Hg | 380 +/- 10.0 beats/min. |  | 0.501 µM |
| C[C@]12CC[C@H](OCCOCCN3CCCC3)C[C@@H]1CC[C@@H]1[C@@H]2CC[C@@]2(C)[C@H]1CC[C@@]2(OCCN1CCCC1)c1ccoc1 [Comp. I-an, 3β-(2-(2-(1-Pyrrolidinyl)ethoxy)ethoxy)-17β-(2-(1-pyrrolidinyl)ethoxy)-17α-(3-furyl)-androstane] |  |  | 152 +/- 5.0 mm Hg | 375 +/- 9.0 beats/min. |  |  |
